Experimental data reported in patent US20030215462A1, “Use of UGT inhibitors to increase bioavailability” (priority 2001, published 2003).
Values joined by “and” are separate entries in the source; they are usually repeats but may differ in a detail not shown here. Equal entries are not always repeated. Each block holds one molecule with its values, some of them ahead of it.

How the values were obtained:
[1] = biological target: T1, UGT1A10 (Homo sapiens, UniProt Q9HAW8); assay: Inhibition of raloxifene glucuronidation by recombinant UGT1A10 Bacculosomes; details: for activity at 15 min, 50 µM: Bacculosomes with recombinant human UGT1A10, pH 7.5, probe raloxifene 50 μM
T1 sequence (Q9HAW8 26-530): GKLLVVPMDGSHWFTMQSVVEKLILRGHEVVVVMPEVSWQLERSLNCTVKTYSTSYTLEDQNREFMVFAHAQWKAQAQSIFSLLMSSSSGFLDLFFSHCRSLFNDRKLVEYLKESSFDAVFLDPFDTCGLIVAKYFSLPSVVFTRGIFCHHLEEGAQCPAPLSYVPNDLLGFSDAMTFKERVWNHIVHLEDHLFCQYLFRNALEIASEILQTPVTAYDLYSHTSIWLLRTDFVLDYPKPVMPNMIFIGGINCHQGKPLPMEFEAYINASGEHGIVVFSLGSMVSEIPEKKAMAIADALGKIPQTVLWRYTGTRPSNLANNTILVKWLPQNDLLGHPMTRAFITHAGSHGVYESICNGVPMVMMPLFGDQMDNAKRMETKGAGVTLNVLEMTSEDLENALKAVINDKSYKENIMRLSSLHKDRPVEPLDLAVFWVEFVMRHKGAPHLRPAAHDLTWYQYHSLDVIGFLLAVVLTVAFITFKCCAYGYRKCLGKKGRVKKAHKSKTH
Protocol: (§1) Compounds were eluted using a binary solvent gradient system. Solvent A was water brought to pH 8 with NH4OH. Solvent B was methanol. Solvent flow rate was 1 ml/min and the column temperature was maintained at 50° C. Detection was at 280 nm. […] The system was then returned to the initial conditions and equilibrated for 3 min.

[2] = test system: UGT enzymes of pooled human jejunum microsomes; assay: Inhibition of 2ME2 glucuronidation (MG1) in pooled human jejunum microsomes; type: biochemical; details: jejunum HJ61, 2ME2 50 μM
Text: Compounds were eluted using a binary solvent gradient system where solvent A was dilute phosphoric acid (pH 3) and solvent B was 80:20 acetonitrile-methanol. […] Detection was at 280 nm.

[3] = biological target: T2, UGT1A8 (Homo sapiens, UniProt Q9HAW9); assay: Inhibition of raloxifene glucuronidation by recombinant UGT1A8 Supersomes; details: for activity at 15 min, 10 µM: human, Supersomes with recombinant human UGT1A8, pH 7.5, probe raloxifene 50 μM, inhibitor 10 μM
T2 sequence (Q9HAW9 26-530): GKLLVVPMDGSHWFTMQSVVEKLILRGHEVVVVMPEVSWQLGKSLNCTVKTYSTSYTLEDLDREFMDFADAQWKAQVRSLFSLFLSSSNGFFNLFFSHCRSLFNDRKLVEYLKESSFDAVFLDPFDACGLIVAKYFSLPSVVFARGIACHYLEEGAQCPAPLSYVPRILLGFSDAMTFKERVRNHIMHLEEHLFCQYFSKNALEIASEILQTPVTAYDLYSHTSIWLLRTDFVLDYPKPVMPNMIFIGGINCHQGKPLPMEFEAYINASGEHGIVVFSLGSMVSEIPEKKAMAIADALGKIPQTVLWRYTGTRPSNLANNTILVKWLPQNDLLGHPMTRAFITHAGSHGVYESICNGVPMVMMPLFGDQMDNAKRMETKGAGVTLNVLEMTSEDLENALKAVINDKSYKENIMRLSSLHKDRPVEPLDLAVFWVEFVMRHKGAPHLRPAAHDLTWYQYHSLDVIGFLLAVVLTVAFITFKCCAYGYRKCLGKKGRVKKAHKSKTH
Protocol: as §1

[4] = biological target: T3, UGT1A3 (Homo sapiens, UniProt P35503); assay: Inhibition of raloxifene glucuronidation by recombinant UGT1A3 Supersomes; details: for activity at 15 min, 10 µM / activity at 15 min, 25 µM / activity at 15 min, 50 µM: human; for activity at 15 min, 10 µM: inhibitor 10 μM
T3 sequence (P35503 29-534): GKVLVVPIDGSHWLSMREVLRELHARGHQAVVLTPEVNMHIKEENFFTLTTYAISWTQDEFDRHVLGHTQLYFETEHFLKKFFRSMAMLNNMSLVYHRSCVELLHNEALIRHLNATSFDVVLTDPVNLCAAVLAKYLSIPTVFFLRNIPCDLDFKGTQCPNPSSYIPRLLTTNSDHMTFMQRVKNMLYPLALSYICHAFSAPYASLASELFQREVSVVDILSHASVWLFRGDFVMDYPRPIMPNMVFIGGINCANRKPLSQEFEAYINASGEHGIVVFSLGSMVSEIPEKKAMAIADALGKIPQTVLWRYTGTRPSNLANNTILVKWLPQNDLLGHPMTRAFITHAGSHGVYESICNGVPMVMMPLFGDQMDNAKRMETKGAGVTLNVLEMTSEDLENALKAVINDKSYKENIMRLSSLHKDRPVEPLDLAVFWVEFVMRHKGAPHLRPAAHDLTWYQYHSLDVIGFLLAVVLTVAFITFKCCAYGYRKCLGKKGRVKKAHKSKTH
Protocol: as §1

[5] = biological target: T4, UGT enzymes of human liver microsomes (Homo sapiens, UniProt P16662); assay: Inhibition of zidovudine glucuronidation in human liver microsomes; type: biochemical; details: liver lot 062101
T4 construct: residual metabolism (percentage of control), zidovudine glucuronidation; other: liver lot 062101; residual metabolism (percentage of control), zidovudine glucuronidation; residual metabolism (percentage of control)
T4 sequence (P16662 1-529): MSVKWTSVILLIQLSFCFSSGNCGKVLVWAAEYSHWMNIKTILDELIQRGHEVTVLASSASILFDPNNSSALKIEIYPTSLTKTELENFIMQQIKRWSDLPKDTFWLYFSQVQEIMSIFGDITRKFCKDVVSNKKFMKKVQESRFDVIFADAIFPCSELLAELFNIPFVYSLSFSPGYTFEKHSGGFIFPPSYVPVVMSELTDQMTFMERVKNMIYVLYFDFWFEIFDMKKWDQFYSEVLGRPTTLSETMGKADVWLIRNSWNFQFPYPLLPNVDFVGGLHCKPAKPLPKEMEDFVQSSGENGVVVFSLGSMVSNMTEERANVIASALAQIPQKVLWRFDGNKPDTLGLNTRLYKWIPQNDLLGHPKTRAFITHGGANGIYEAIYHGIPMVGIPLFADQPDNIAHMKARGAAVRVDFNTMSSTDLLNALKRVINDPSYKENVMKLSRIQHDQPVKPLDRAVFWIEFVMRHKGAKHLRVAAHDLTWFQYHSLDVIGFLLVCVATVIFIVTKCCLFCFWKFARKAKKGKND
Protocol: Compounds were eluted using a binary solvent gradient system where solvent A was dilute phosphoric acid (pH 3) and solvent B was acetonitrile.
Standardized incubations utilized 500 μM zidovudine substrate, 1 mg/ml microsomal protein, 5 mM UDPGA and a 30 min incubation time. […] Int.

[6] = inhibitor 25 μM, raloxifene 50 μM, 250 μg/ml Supersomes, 1 mM UDPGA, 15 min
[7] = inhibitor 50 μM, raloxifene 50 μM, 250 μg/ml Supersomes, 1 mM UDPGA, 15 min

- activity at 15 min, 10 µM ([1]; human, Bacculosomes with recombinant human UGT1A10, pH 7.5, % of control metabolism, raloxifene glucuronide (one value printed, G1 or G2 not stated), UGT1A10, inhibitor 10 μM): 70%
- activity at 15 min, 25 µM ([1]; human, Bacculosomes with recombinant human UGT1A10, pH 7.5, % of control metabolism, raloxifene glucuronide (one value printed, G1 or G2 not stated), UGT1A10, inhibitor 25 μM): 74%
- activity at 15 min, 50 µM ([1]; human, formation of glucuronide G1, % of control metabolism, raloxifene G1, UGT1A10, inhibitor 50 μM): 50%
- activity at 15 min, 50 µM ([1]; human, formation of glucuronide G2, % of control metabolism, raloxifene G2, UGT1A10, inhibitor 50 μM): 39%
- residual metabolism (% of control), 2ME2 MG1 ([2]; inhibitor 1 μM): 93 (4) %
- residual metabolism (% of control), 2ME2 MG1 ([2]; inhibitor 10 μM): 75 (1) %
- activity at 15 min, 10 µM ([3]; formation of glucuronide G1, % of control metabolism, raloxifene G1, UGT1A8): 156%
- activity at 15 min, 10 µM ([3]; formation of glucuronide G2, % of control metabolism, raloxifene G2, UGT1A8): 73%
- activity at 15 min, 10 µM ([4]; Supersomes with recombinant human UGT1A3, pH 7.5, probe raloxifene 50 μM, formation of glucuronide G1, % of control metabolism, raloxifene G1, UGT1A3): 65%
- activity at 15 min, 25 µM ([4]; Supersomes with recombinant human UGT1A3, pH 7.5, probe raloxifene 50 μM, formation of glucuronide G1, % of control metabolism, raloxifene G1, UGT1A3, inhibitor 25 μM): 32%
- activity at 15 min, 50 µM ([4]; Supersomes with recombinant human UGT1A3, pH 7.5, probe raloxifene 50 μM, formation of glucuronide G1, % of control metabolism, raloxifene G1, UGT1A3, inhibitor 50 μM): 14%
- activity at 15 min, 10 µM ([4]; Supersomes with recombinant human UGT1A3, pH 7.5, probe raloxifene 50 μM, formation of glucuronide G2, % of control metabolism, raloxifene G2, UGT1A3): 74%
- activity at 15 min, 25 µM ([4]; Supersomes with recombinant human UGT1A3, pH 7.5, probe raloxifene 50 μM, formation of glucuronide G2, % of control metabolism, raloxifene G2, UGT1A3, inhibitor 25 μM): 48%
- activity at 15 min, 50 µM ([4]; Supersomes with recombinant human UGT1A3, pH 7.5, probe raloxifene 50 μM, formation of glucuronide G2, % of control metabolism, raloxifene G2, UGT1A3, inhibitor 50 μM): 21%
- activity at 15 min, 10 µM ([4]; recombinant UGT1A3 Supersomes, pH 7.5, probe raloxifene 50 μM (formation of glucuronide G1), Inhibition of raloxifene glucuronidation, G1, UGT1A3, G1, raloxifene 50 μM, 250 μg/ml Supersomes, 1 mM UDPGA, 15 min): 65%
- activity at 15 min, 25 µM ([4]; recombinant UGT1A3 Supersomes, pH 7.5, probe raloxifene 50 μM (formation of glucuronide G1), Inhibition of raloxifene glucuronidation, G1, UGT1A3, G1, inhibitor 25 μM, raloxifene 50 μM, 250 μg/ml Supersomes, 1 mM UDPGA, 15 min): 32%
- activity at 15 min, 50 µM ([4]; recombinant UGT1A3 Supersomes, pH 7.5, probe raloxifene 50 μM (formation of glucuronide G1), Inhibition of raloxifene glucuronidation, G1, UGT1A3, G1, inhibitor 50 μM, raloxifene 50 μM, 250 μg/ml Supersomes, 1 mM UDPGA, 15 min): 14%
- activity at 15 min, 10 µM ([4]; recombinant UGT1A3 Supersomes, pH 7.5, probe raloxifene 50 μM (formation of glucuronide G2), Inhibition of raloxifene glucuronidation, G2, UGT1A3, G2, raloxifene 50 μM, 250 μg/ml Supersomes, 1 mM UDPGA, 15 min): 74%
- activity at 15 min, 25 µM ([4]; recombinant UGT1A3 Supersomes, pH 7.5, probe raloxifene 50 μM (formation of glucuronide G2), Inhibition of raloxifene glucuronidation, G2, UGT1A3, G2, inhibitor 25 μM, raloxifene 50 μM, 250 μg/ml Supersomes, 1 mM UDPGA, 15 min): 48%
- activity at 15 min, 50 µM ([4]; recombinant UGT1A3 Supersomes, pH 7.5, probe raloxifene 50 μM (formation of glucuronide G2), Inhibition of raloxifene glucuronidation, G2, UGT1A3, G2, inhibitor 50 μM, raloxifene 50 μM, 250 μg/ml Supersomes, 1 mM UDPGA, 15 min): 21%
- residual metabolism (percentage of control), zidovudine glucuronidation ([5]; inhibitor 50 μM): 50 (4) % and 44 (2) %
- residual metabolism (percentage of control), zidovudine glucuronidation ([5]; inhibitor 100 μM): 34 (4) %
- residual metabolism (percentage of control), zidovudine glucuronidation ([5]; inhibitor 200 μM): 15 (1) %
- residual metabolism (percentage of control), zidovudine glucuronidation ([5]; inhibitor 500 μM): 0 (0) %
SMILES: CC/C(=C(/CC)c1ccc(O)cc1)c1ccc(O)cc1 [Diethylstilbestrol, reference compound]

SMILES: O=C(O[C@@H]1Cc2c(O)cc(O)cc2O[C@@H]1c1cc(O)c(O)c(O)c1)c1cc(O)c(O)c(O)c1 [Epigallocatechin gallate]
- % of control metabolism, raloxifene G1 ([1]; UGT1A10, inhibitor 25 μM): 68 (1) %
- % of control metabolism, raloxifene G2 ([1]; UGT1A10, inhibitor 25 μM): 73 (1) %
- % of control metabolism, raloxifene G1 ([1]; UGT1A10, inhibitor 50 μM): 37 (2) %
- % of control metabolism, raloxifene G2 ([1]; UGT1A10, inhibitor 50 μM): 37 (1) %
- residual metabolism (% of control), 2ME2 MG1 ([2]; inhibitor 25 μM): 66 (2) %
- residual metabolism (% of control), 2ME2 MG1 ([2]; inhibitor 50 μM): 50 (3) %
- residual metabolism (% of control), 2ME2 MG1 ([2]; inhibitor 100 μM): 35 (2) %
- % of control metabolism, raloxifene G1 ([3]; UGT1A8, inhibitor 50 μM): 69 (3) %
- % of control metabolism, raloxifene G2 ([3]; UGT1A8, inhibitor 50 μM): 54 (2) %
- Inhibition of raloxifene glucuronidation, G1, UGT1A3 [4, 6]: 69 (2)
- Inhibition of raloxifene glucuronidation, G1, UGT1A3 [4, 7]: 26 (2)
- Inhibition of raloxifene glucuronidation, G2, UGT1A3 [4, 6]: 64 (3)
- Inhibition of raloxifene glucuronidation, G2, UGT1A3 [4, 7]: 25 (1)
- % of control metabolism, raloxifene G1 ([4]; UGT1A3, inhibitor 25 μM): 69 (2) %
- % of control metabolism, raloxifene G2 ([4]; UGT1A3, inhibitor 25 μM): 64 (3) %
- % of control metabolism, raloxifene G1 ([4]; UGT1A3, inhibitor 50 μM): 26 (2) %
- % of control metabolism, raloxifene G2 ([4]; UGT1A3, inhibitor 50 μM): 25 (1) %
- residual metabolism (percentage of control), zidovudine glucuronidation ([5]; inhibitor 50 μM): 70 (1) %
- residual metabolism (percentage of control), zidovudine glucuronidation ([5]; inhibitor 100 μM): 60 (2) %
- residual metabolism (percentage of control), zidovudine glucuronidation ([5]; inhibitor 200 μM): 39 (2) %
- residual metabolism (percentage of control), zidovudine glucuronidation ([5]; inhibitor 500 μM): 18 (1) %

SMILES: C=CCc1ccc(O)c(OC)c1 [Eugenol]
- inhibition of raloxifene glucuronidation, in words ([1]; UGT1A10): ineffective
- residual metabolism (% of control), 2ME2 MG1 ([2]; inhibitor 100 μM): 104 (4) %
- inhibition of raloxifene glucuronidation, in words ([3]; UGT1A8): ineffective
- inhibition of raloxifene glucuronidation, in words ([4]; UGT1A3): ineffective
- residual metabolism (percentage of control), zidovudine glucuronidation ([5]; inhibitor 500 μM): 84 (2) %
- residual metabolism (percentage of control), zidovudine glucuronidation ([5]; inhibitor 1000 μM): 48 (4) %
